# In BindingDB's records for doi:10.1021/jm00018a020 (Centre De Recherche Pierre Fabre, 1995):
# Target: 5-hydroxytryptamine receptor 1B (Homo sapiens) (UniProt P28222)
# Test: Binding affinity for cloned human 5-hydroxytryptamine 1D receptor beta
# Sequence of 5-hydroxytryptamine receptor 1B (Homo sapiens) (P28222 whole entry, looked up): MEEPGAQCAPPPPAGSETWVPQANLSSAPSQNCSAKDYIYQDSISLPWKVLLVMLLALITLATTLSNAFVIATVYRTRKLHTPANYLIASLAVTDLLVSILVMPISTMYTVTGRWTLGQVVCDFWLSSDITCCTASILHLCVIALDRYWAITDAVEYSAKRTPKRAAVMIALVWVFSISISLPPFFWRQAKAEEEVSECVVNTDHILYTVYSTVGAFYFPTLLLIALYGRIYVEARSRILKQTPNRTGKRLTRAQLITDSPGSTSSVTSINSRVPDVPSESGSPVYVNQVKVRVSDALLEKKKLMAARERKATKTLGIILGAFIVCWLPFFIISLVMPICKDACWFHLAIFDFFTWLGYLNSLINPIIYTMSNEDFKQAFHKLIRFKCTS
row,SMILES,Ki [nM]
1,NCCc1c[nH]c2ccc(OCC(=O)N3CCN(c4ccccc4)CC3)cc12 [2-[3-(2-Amino-ethyl)-1H-indol-5-yloxy]-1-(4-phenyl-piperazin-1-yl)-ethanone],0.4
2,NCCc1c[nH]c2ccc(OCCCCCC(=O)N3CCN(c4ccc(N)cc4)CC3)cc12 [6-[3-(2-Amino-ethyl)-1H-indol-5-yloxy]-1-[4-(4-amino-phenyl)-piperazin-1-yl]-hexan-1-one],0.31
3,NCCc1c[nH]c2ccc(OCCCC(=O)N3CCN(c4ccc([N+](=O)[O-])cc4)CC3)cc12 [4-[3-(2-Amino-ethyl)-1H-indol-5-yloxy]-1-[4-(4-nitro-phenyl)-piperazin-1-yl]-butan-1-one],5
4,CN(C)CCc1c[nH]c2ccc(C[C@H]3COC(=O)N3)cc12 [(S)-4-((3-(2-(dimethylamino)ethyl)-1H-indol-5-yl)methyl)oxazolidin-2-one],4
5,CS(=O)(=O)Nc1ccc(N2CCN(C(=O)COc3ccc4[nH]cc(CCN)c4c3)CC2)cc1 [N-[4-(4-{2-[3-(2-Amino-ethyl)-1H-indol-5-yloxy]-acetyl}-piperazin-1-yl)-phenyl]-methanesulfonamide],2.7
6,NCCc1c[nH]c2ccc(OCCCCC(=O)N3CCN(c4ccc([N+](=O)[O-])cc4)CC3)cc12 [5-[3-(2-Amino-ethyl)-1H-indol-5-yloxy]-1-[4-(4-nitro-phenyl)-piperazin-1-yl]-pentan-1-one],1.8
7,NCCc1c[nH]c2ccc(OCC(=O)N3CCN(c4ccc([N+](=O)[O-])cc4)CC3)cc12 [2-[3-(2-Amino-ethyl)-1H-indol-5-yloxy]-1-[4-(4-nitro-phenyl)-piperazin-1-yl]-ethanone],0.83
8,CS(=O)(=O)NCc1ccccc1N1CCN(C(=O)COc2ccc3[nH]cc(CCN)c3c2)CC1 [N-[2-(4-{2-[3-(2-Amino-ethyl)-1H-indol-5-yloxy]-acetyl}-piperazin-1-yl)-benzyl]-methanesulfonamide],0.53
9,NCCc1c[nH]c2ccc(OCC(=O)N3CCN(c4ccccc4[N+](=O)[O-])CC3)cc12 [2-[3-(2-Amino-ethyl)-1H-indol-5-yloxy]-1-[4-(2-nitro-phenyl)-piperazin-1-yl]-ethanone],0.3
10,NCCc1c[nH]c2ccc(OCC(=O)N3CCN(c4ccc(NC(=O)c5ccccc5)cc4)CC3)cc12 [N-[4-(4-{2-[3-(2-Amino-ethyl)-1H-indol-5-yloxy]-acetyl}-piperazin-1-yl)-phenyl]-benzamide],1.3
11,CS(=O)(=O)NCc1ccc(N2CCN(C(=O)COc3ccc4[nH]cc(CCN)c4c3)CC2)cc1 [N-[4-(4-{2-[3-(2-Amino-ethyl)-1H-indol-5-yloxy]-acetyl}-piperazin-1-yl)-benzyl]-methanesulfonamide],2.2
12,NCCc1c[nH]c2ccc(OCCCCCC(=O)N3CCN(c4ccc([N+](=O)[O-])cc4)CC3)cc12 [6-[3-(2-Amino-ethyl)-1H-indol-5-yloxy]-1-[4-(4-nitro-phenyl)-piperazin-1-yl]-hexan-1-one],0.47
13,NCCc1c[nH]c2ccc(OCC(=O)N3CCN(c4ccc(CN)cc4)CC3)cc12 [2-[3-(2-Amino-ethyl)-1H-indol-5-yloxy]-1-[4-(4-aminomethyl-phenyl)-piperazin-1-yl]-ethanone],2.5
14,NCCc1c[nH]c2ccc(OCC(=O)N3CCN(c4ccc(N)cc4)CC3)cc12 [2-[3-(2-Amino-ethyl)-1H-indol-5-yloxy]-1-[4-(4-amino-phenyl)-piperazin-1-yl]-ethanone],1.6
15,CS(=O)(=O)Nc1ccc(N2CCN(C(=O)CCCCCOc3ccc4[nH]cc(CCN)c4c3)CC2)cc1 [N-[4-(4-{6-[3-(2-Amino-ethyl)-1H-indol-5-yloxy]-hexanoyl}-piperazin-1-yl)-phenyl]-methanesulfonamide],1.4
16,NCCc1c[nH]c2ccc(OCC(=O)N3CCN(c4ccccc4CN)CC3)cc12 [2-[3-(2-Amino-ethyl)-1H-indol-5-yloxy]-1-[4-(2-aminomethyl-phenyl)-piperazin-1-yl]-ethanone],1.8
17,N#Cc1ccccc1N1CCN(C(=O)COc2ccc3[nH]cc(CCN)c3c2)CC1 [2-(4-{2-[3-(2-Amino-ethyl)-1H-indol-5-yloxy]-acetyl}-piperazin-1-yl)-benzonitrile],0.39
18,CN(C)S(=O)(=O)Nc1ccc(N2CCN(C(=O)COc3ccc4[nH]cc(CCN)c4c3)CC2)cc1,1.9
